Results on 1 compound are retold here after paper PMC7229617, “N-alkylisatin-based microtubule destabilizers bind to the colchicine site on tubulin and retain efficacy in drug resistant acute lymphoblastic leukemia cell lines with less in vitro neurotoxicity” (Cancer Cell International, 2020).

In the assay the test system is T1, tubulin.
T1 construct: gene TUBA1B; pure tubulin, alpha-beta heterodimer (colchicine site at alpha/beta interface); mixture of brain isotypes
In words: fluorescence competition (displacement of MTC), Equigra V5.[…] fit. In kind it is binding. The conditions noted are these: colchicine site, competitive with MTC; 10 mM phosphate pH 7, 1 mM EDTA, 1.5 mM MgCl2, 0.1 mM GTP, 25 °C; printed exponent ambiguous (10^5 or 10^4), unreliable.

Turning to `O=C1C(=O)N(Cc2cccc3ccccc23)c2c(Br)cc(Br)cc21` [N1M-isatin, 5,7-dibromo-N-(naphthalene-1-ylmethyl)isatin], the “Binding affinity (M^-1) ± SEM^a” value is given as 1.4 ± 0.2 × 10^5(× 10^4).
